According to patent US6987105B2, “Synthesis and use of thienotriazolodiazepines” (Board of Supervisors of Louisiana State University And …, priority 2000, dated 2006):

Columns and labels:
[1] = system: angiogenesis in the mouse cornea; assay: mouse corneal micropocket assay (PAF-induced angiogenesis); format: in vivo, mice
Excerpt: The mouse corneal micropocket assay according to the procedure of B. M. Kenyon et al., “A model of angiogenesis in the mouse cornea,” Invest. Ophthalmol. Vis. Sci. vol. 37, pp. 1625-1632 (1996), was used to test whether LAU-8080 would inhibit angiogenesis.
Mouse corneal micropocket assay: Corneal micropockets were created with a modified von Graefe knife in both eyes of 5- to 6-weeks old mice. Pellets containing vehicle of 0.1% BSA in PBS with 12% polyhydroxyethylmetacrylate (Hydron) were implanted in the corneas at 1 mm from the limbus of the mice for a control. For the PAF experiment, 500 ng cPAF was added to the pellet with vehicle. For the PAF-LAU experiment, mice were implanted with Hydron pellets containing 0.1% BSA in PBS, 500 ng CPAF, and then treated with the PAF antagonist LAU-8080 (30 μg/g body weight), i.p., once a day. Six days later, corneal pictures were taken under the microscope and vessel length and clock hours of circumferential neovascularization were measured.

[2] = system: photoreceptor cells; assay: light-induced retina damage model (bright light-treated photoreceptors); format: in vivo, Sprague-Dawley rats; details: rat, 30 mg/kg i.p. pretreatment
Procedure: The light-induced retina damage model selectively promotes the killing of photoreceptor cells as it occurs in age-related macular degeneration and retinitis pigmentosa.
Sprague-Dawley rats (150-175 g males) were dark adapted for 3 days. Two hours before light treatment they were injected i.p. with LAU-8080 (30 mg/kg) suspended in a vehicle (cyclo-dextrin) or just vehicle. A third group received no injection. Rats were placed in 5 inch diameter cylindrical lucite tubes which were then placed within an 8-light array of 10 inch diameter fluorescent lights (40 Watt, G.E. cool white; 350 μE/m^2·s; 25 klux) for up to 5 hours. After 10 days in darkness, eyes were collected and prepared for histology. […] The profile of the photoreceptor nuclear layer of the light+vehicle, light+vehicle+LAU-8080, and dark rat retinas were compared. The percent cell loss under each condition was calculated against the dark animal controls.

[3] = system: middle cerebral artery occlusion and reperfusion; assay: MCAO and reperfusion stroke model in PAF receptor Knock-out mice; format: in vivo, PAF-R deficient mice (PAF receptor Knock-out mice)
Excerpt: To study the properties of LAU-8080 in an animal model of stroke, the technique of occluding the middle cerebral artery (middle cerebral artery occlusion, “MCAO”) which has been adapted to the mouse was used. The mouse middle cerebral artery occlusion is a well-recognized model of focal stroke as neuronal damage occurs when ischemia-reperfusion damages the brain. Adult male mice (C57BL/6) weighing 22-25 grams were induced to anesthesia with 1/70/30% halothane/nitrous oxide/oxygen, on a temperature controlled blanket. A line of PAF-R deficient mice (PAF receptor Knock-out mice), as described in S. Ishi et al., “Impaired anaphylactic responses with intact sensitivity to endotoxin in mice lacking a platelet-activating factor,” J. Exp. Med., vol. 187, pp. 1779-1788 (1998), was also used. The common carotid and external carotid arteries were exposed and dissected from surrounding tissue; the right external carotid artery was ligated. The right common carotid was temporarily occluded. […]
(§1) Volumetric changes in infarcted brain regions in mice after 1 hour MCAO and 24-48 hours reperfusion was obtained by staining brain slices 1 mm thick with 2% 2,3,5-triphenyltetrazolium chloride (TTC). Quantitative analysis of the volume of the infarcted area was obtained by image-analysis.

[4] = system: middle cerebral artery occlusion and reperfusion; assay: middle cerebral artery occlusion (MCAO) and reperfusion stroke model; format: in vivo, mice (C57BL/6)
Excerpt: To study the properties of LAU-8080 in an animal model of stroke, the technique of occluding the middle cerebral artery (middle cerebral artery occlusion, “MCAO”) which has been adapted to the mouse was used. The mouse middle cerebral artery occlusion is a well-recognized model of focal stroke as neuronal damage occurs when ischemia-reperfusion damages the brain. Adult male mice (C57BL/6) weighing 22-25 grams were induced to anesthesia with 1/70/30% halothane/nitrous oxide/oxygen, on a temperature controlled blanket. A line of PAF-R deficient mice (PAF receptor Knock-out mice), as described in S. Ishi et al., “Impaired anaphylactic responses with intact sensitivity to endotoxin in mice lacking a platelet-activating factor,” J. Exp. Med., vol. 187, pp. 1779-1788 (1998), was also used. The common carotid and external carotid arteries were exposed and dissected from surrounding tissue; the right external carotid artery was ligated. The right common carotid was temporarily occluded. A small arteriotomy to the external carotid artery was made so the occluding filament was introduced and advanced to the common carotid artery, and redirected into the internal carotid artery. The filament was advanced so that the blunted tip was placed in the anterior cerebral artery and the side of the filament occluded the origin of the middle cerebral artery. The common carotid artery was gently released, restoring blood flow to the carotid system. The wound was inspected for bleeding. All retracting sutures were removed, and the wound was closed. The anesthetic gases were stopped, and the animal was given oxygen until fully awake, then returned to his cage. After 60 minutes of occlusion, animals were reperfused by removal occluding filament. Animals were placed under anesthesia again, the occluding suture was delicately withdrawn from the arterial lumen, restoring blood flow to the territory of the middle cerebral artery. The wound was closed by interrupted silk sutures. The anesthetic gases were stopped, and the animal was given oxygen until fully awake.
The treated animals received a single i.p. injection of LAU-8080 (30 mg/kg) at 1 hour after reperfusion started, and control animals received vehicle injection (2-hydroxypropyl-β-cyclodextrin).
Scores were collected according Bederson's classification: a score of “0” indicates the animal moved freely changing directions. […]
as §1

[5] = system: PAF binding sites of microsomal membranes; details: cited from earlier work
[6] = system: PAF binding site of the synaptosomal, plasma membrane; details: cited from earlier work

Row | Compound | angiogenesis (vessel length and clock hours) induced by pellet ([1]; pellet with 500 ng cPAF, 6 days after implantation, versus vehicle pellet) | cell loss in an area near the center of the photodamage region [2] | depth of photoreceptor nuclear layer [2] [cells deep] | survival ([3]; PAF knock-out mice, injection one hour after reperfusion, p<0.0074) | infarct volume ([3]; PAF receptor Knock-out mice) | neurological scores (Bederson's classification) ([4]; 30 mg/kg i.p. 1 hour after reperfusion, noticeable 24 hours after reperfusion) | infarct volume ([4]; 1 hour MCAO and 48 hours reperfusion, injection 1 hour after reperfusion onset, p<0.0026) | survival ([4]; 1 hour MCAO, single i.p. 30 mg/kg 1 hour after onset of reperfusion, followed-up 14 days, n=20, p<0.04 vs vehicle) [%] | effect of injection at different times during the procedure versus 1 hour after reperfusion ([4]; MCAO mice) | displacement of PAF [5] | angiogenesis (vessel length and clock hours of circumferential neovascularization) ([1]; 500 ng cPAF pellet, LAU-8080 30 μg/g body weight i.p. once a day, 6 days, p<0.05) | displacement of PAF [6]
1 | 1-O-alkyl-2-acetyl-sn-glycero-3-phosphocholine [PAF, reference compound] | strongly induced | – | – | – | – | – | – | – | – | – | – | –
2 | COc1ccc(NC(=S)N2CCc3c(sc4c3C(c3ccccc3Cl)=NCc3nnc(C)n3-4)C2)cc1 [LAU-8080, 6-(2-chlorophenyl)-9-[(4-methoxyphenyl)thiocarbamoyl]-1-methyl-7,8,9,10-tetrahydro-4H-pyrido[4′,3′:4,5]thieno[3,2-f]-1,2,4-triazolo[4,3-a]-1,4-diazepine] | – | complete lack of cell loss | 12 | significative protection | small reduction | significative improvement | significant reduction | 35 | did not differ significantly | displace PAF from microsomal membranes | significantly reduced | not from the synaptosomal, plasma membrane
